Where two headings read alike, the source gives them in different places.

The assay addresses T1, BCL6 (Homo sapiens, UniProt P41182).
T1 construct: endogenous in cells; host or cells: T47D breast cancer epithelial cells
Description: Immunofluorescence protocol for high content imaging of BCL6 (degradation) in T47D cells, 3 days compound treatment. It is filed as cell-based. The note with it: for DC50: read-out: Mean DC50 (nM)* category; for Dmax: read-out: Mean Dmax (%)** category. An outline of the steps:
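T47D cells in RPMI1640-10% FBS were treated with an 11-point 3-fold dilution series (final top 0.1 or 1 μM) for 3 days at 37° C. After PFA fixation and Triton permeabilization, cells were immunostained with rabbit anti-BCL6 (1:300, overnight 4° C), Alexa-488 secondary, CellMask-647 and Hoechst, then imaged at 10×, 4 fields/well.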

Setting [1] is: T47D cells, 3 days compound treatment.

For the molecule `CNC(=O)COc1cc2cc(Nc3nc(N4CCC(O[C@H]5C[C@H](N6CCC(c7ccc8c(c7F)CN(C7CCC(=O)NC7=O)C8=O)C(F)C6)C5)CC4)ncc3Cl)ccc2n(C(C)C)c1=O` (stereo partly shown) [Compound 201, 2-[[6-[[5-chloro-2-[4-[3-[4-[2-(2,6-dioxo-3-piperidyl)-4-fluoro-1-oxo-isoindolin-5-yl]-3-fluoro-1-piperidyl]cyclobutoxy]-1-piperidyl]pyrimidin-4-yl]amino]-1-isopropyl-2-oxo-3-quinolyl]oxy]-N-methyl-acetamide], under setting [1], the half-maximal degradation concentration (DC50) was less than 10 nM and the Dmax is no less than 70%.

Regarding `CNC(=O)COc1cc2cc(Nc3nc(N4CCC(O[C@H]5C[C@H](N6CCN(c7ccc8c(c7Cl)CN(C7CCC(=O)NC7=O)C8=O)[C@H](C)C6)C5)CC4)ncc3Cl)ccc2n(C(C)C)c1=O` (stereo partly drawn) [Compound 202, 2-({6-[(5-chloro-2-{4-[(1r,3r)-3-[(3R)-4-[4-chloro-2-(2,6-dioxopiperidin-3-yl)-1-oxo-2,3-dihydro-1H-isoindol-5-yl]-3-methylpiperazin-1-yl]cyclobutoxy]piperidin-1-yl}pyrimidin-4-yl)amino]-2-oxo-1-(propan-2-yl)-1,2-dihydroquinolin-3-yl}oxy)-N-methylacetamide], under setting [1], the DC50 is less than 10 nM and the Dmax is no less than 70%.

Regarding `CNC(=O)COc1cc2cc(Nc3nc(N4CCC(O[C@H]5C[C@H](N6CCN(c7ccc8c(n7)C(C)N(C7CCC(=O)NC7=O)C8=O)[C@@H](C)C6)C5)CC4)ncc3Cl)ccc2n(C(C)C)c1=O` (stereo partly shown) [Compound 204], under setting [1], the DC50 is less than 10 nM and the Dmax is no less than 70%.

`CC[C@@H]1CN([C@H]2C[C@H](OC3CCN(c4ncc(Cl)c(Nc5ccc6c(c5)cc(OCC(=O)NC)c(=O)n6C(C)C)n4)CC3)C2)CCN1c1ccc2c(c1Cl)CN(C1CCC(=O)NC1=O)C2=O` (stereo partly drawn) [Compound 205, 2-({6-[(5-chloro-2-{4-[(1r,3r)-3-[(3R)-4-[4-chloro-2-(2,6-dioxopiperidin-3-yl)-1-oxo-2,3-dihydro-1H-isoindol-5-yl]-3-ethylpiperazin-1-yl]cyclobutoxy]piperidin-1-yl}pyrimidin-4-yl)amino]-2-oxo-1-(propan-2-yl)-1,2-dihydroquinolin-3-yl}oxy)-N-methylacetamide]: under setting [1], the DC50 is less than 10 nM and the greatest degradation seen (Dmax) is no less than 70%.

For the molecule `CNC(=O)COc1cc2cc(Nc3nc(N4CCC(O[C@H]5C[C@H](N6CCN(c7ccc8c(c7Cl)CN(C7CCC(=O)NC7=O)C8=O)[C@@H](C)C6)C5)CC4)ncc3Cl)ccc2n(C(C)C)c1=O` (stereo partly drawn) [Compound 206, 2-({6-[(5-chloro-2-{4-[(1r,3r)-3-[(3S)-4-[4-chloro-2-(2,6-dioxopiperidin-3-yl)-1-oxo-2,3-dihydro-1H-isoindol-5-yl]-3-methylpiperazin-1-yl]cyclobutoxy]piperidin-1-yl}pyrimidin-4-yl)amino]-2-oxo-1-(propan-2-yl)-1,2-dihydroquinolin-3-yl}oxy)-N-methylacetamide], under setting [1], the DC50 was less than 10 nM and the Dmax is no less than 70%.

`CNC(=O)COc1cc2cc(Nc3nc(N4CCC(O[C@H]5C[C@H](N6C[C@@H](C)N(c7ccc8c(c7C)C(=O)N(C7CCC(=O)NC7=O)C8=O)C[C@@H]6C)C5)CC4)ncc3Cl)ccc2n(C(C)C)c1=O` (stereo partly drawn) [Compound 207, 2-({6-[(5-chloro-2-{4-[(1r,3r)-3-[(2S,5R)-4-[2-(2,6-dioxopiperidin-3-yl)-4-methyl-1,3-dioxo-2,3-dihydro-1H-isoindol-5-yl]-2,5-dimethylpiperazin-1-yl]cyclobutoxy]piperidin-1-yl}pyrimidin-4-yl)amino]-2-oxo-1-(propan-2-yl)-1,2-dihydroquinolin-3-yl}oxy)-N-methylacetamide]: under setting [1], the DC50 was less than 10 nM and the Dmax is no less than 70%.

Consider `CNC(=O)COc1cc2cc(Nc3nc(N4CCC(O[C@H]5C[C@H](N6CCC(c7cc(C)c8c(c7F)CN(C7CCC(=O)NC7=O)C8=O)CC6)C5)CC4)ncc3Cl)ccc2n(C(C)C)c1=O` (stereo partly shown) [Compound 208, 2-({6-[(5-chloro-2-{4-[(1r,3r)-3-{4-[2-(2,6-dioxopiperidin-3-yl)-4-fluoro-7-methyl-1-oxo-3H-isoindol-5-yl]piperidin-1-yl}cyclobutoxy]piperidin-1-yl}pyrimidin-4-yl)amino]-1-isopropyl-2-oxoquinolin-3-yl}oxy)-N-methylacetamide], for which, under setting [1], the DC50 was less than 10 nM and the Dmax is no less than 70%.

Regarding `CNC(=O)COc1cc2cc(Nc3nc(N4CCC(O[C@H]5C[C@H](N6CC[C@@H](c7ccc8c(c7F)CN([C@H]7CCC(=O)NC7=O)C8=O)C(C)(C)C6)C5)CC4)ncc3Cl)ccc2n(C(C)C)c1=O` [Compound 209, 2-({6-[(5-chloro-2-{4-[(1r,3r)-3-[(4R)-4-{2-[(3S)-2,6-dioxopiperidin-3-yl]-4-fluoro-1-oxo-2,3-dihydro-1H-isoindol-5-yl}-3,3-dimethylpiperidin-1-yl]cyclobutoxy]piperidin-1-yl}pyrimidin-4-yl)amino]-2-oxo-1-(propan-2-yl)-1,2-dihydroquinolin-3-yl}oxy)-N-methylacetamide], under setting [1], the DC50 is less than 10 nM and the Dmax is no less than 70%.

On to `CNC(=O)COc1cc2cc(Nc3nc(N4CCC(O[C@H]5C[C@H](N6CC[C@H](c7ccc8c(c7F)CN([C@H]7CCC(=O)NC7=O)C8=O)C(C)(C)C6)C5)CC4)ncc3Cl)ccc2n(C(C)C)c1=O` [Compound 210, 2-({6-[(5-chloro-2-{4-[(1r,3r)-3-[(4S)-4-{2-[(3S)-2,6-dioxopiperidin-3-yl]-4-fluoro-1-oxo-2,3-dihydro-1H-isoindol-5-yl}-3,3-dimethylpiperidin-1-yl]cyclobutoxy]piperidin-1-yl}pyrimidin-4-yl)amino]-2-oxo-1-(propan-2-yl)-1,2-dihydroquinolin-3-yl}oxy)-N-methylacetamide], for which, under setting [1], the 50% degradation concentration (DC50) is less than 10 nM and the Dmax was no less than 70%.

Take `CNC(=O)COc1cc2cc(Nc3nc(N4CCC(O[C@H]5C[C@H](N6CCN(c7ccc8c(c7)CN([C@H]7CCC(=O)NC7=O)C8=O)C(C)(C)C6)C5)CC4)ncc3Cl)ccc2n(C(C)C)c1=O` [Compound 211, 2-({6-[(5-chloro-2-{4-[(1r,3r)-3-{4-[2-(2,6-dioxopiperidin-3-yl)-1-oxo-2,3-dihydro-1H-isoindol-5-yl]-3,3-dimethylpiperazin-1-yl}cyclobutoxy]piperidin-1-yl}pyrimidin-4-yl)amino]-2-oxo-1-(propan-2-yl)-1,2-dihydroquinolin-3-yl}oxy)-N-methylacetamide]: the DC50 was less than 10 nM. In addition, the Dmax (T47D) was no less than 70%.

Take `CNC(=O)COc1cc2cc(Nc3nc(N4CCC(O[C@H]5C[C@H](N6CCC(c7cc8c(cc7C(F)(F)F)C(=O)N(C7CCC(=O)NC7=O)C8)CC6)C5)CC4)ncc3Cl)ccc2n(C(C)C)c1=O` (stereo partly shown) [Compound 212, 2-({6-[(5-chloro-2-{4-[(1r,3r)-3-{4-[2-(2,6-dioxopiperidin-3-yl)-1-oxo-6-(trifluoromethyl)-2,3-dihydro-1H-isoindol-5-yl]piperidin-1-yl}cyclobutoxy]piperidin-1-yl}pyrimidin-4-yl)amino]-2-oxo-1-(propan-2-yl)-1,2-dihydroquinolin-3-yl}oxy)-N-methylacetamide]: the DC50 is less than 10 nM. In addition, the Dmax (T47D) was 50 to 70%.
